The assay relates to HCV replicon. As to the kind of experiment: Cell-Based HCV Replicon Assay. Particulars: Hepatitis C virus. As to the method: Cell-Based HCV Replicon Assay
To measure cell-based anti-HCV activity of the compounds of the present invention, replicon cells were seeded at 5000 cells/well in 96-well collagen I-coated Nunc plates in the presence of the compound of the invention. Various concentrations of a compound of the invention, typically in 10 serial 2-fold dilutions, were added to the assay mixture, the starting concentration of the compound ranging from 25 μM to 1 μM. The final concentration of DMSO was 0.5%, fetal bovine serum was 10%, in the assay media. Cells were harvested on day 3 by the addition of 1× cell lysis buffer (Ambion cat #8721). The replicon RNA level was measured using real time PCR (Taqman assay). The amplicon was located in 5B. The PCR primers were: 5B.2F, ATGGACAGGCGCCCTGA; 5B.2R, […]; the probe sequence was FAM-labeled CACGCCATGCGCTGCGG. GAPDH RNA was used as endogenous control and was amplified in the same reaction as NS5B (multiplex PCR) using primers and VIC-labeled probe recommended by the manufacturer (PE Applied Biosystem). The real-time RT-PCR reactions were run on ABI PRISM® 7900HT Sequence Detection System using the following program: 48′C for 30 min, 95′C for 10 min, 40 cycles of 95′C for 15 sec, 60′C for 1 min. The ΔCT values (CT5B-CTGAPDH) were plotted against the concentration of test compound and fitted to the sigmoid dose-response model using Graph Pad PRISM® software. EC50 was defined as the concentration of inhibitor necessary to achieve ΔCT=1 over the projected baseline; EC90 the concentration necessary to achieve ΔCT=3.2 over the baseline. Alternatively, to quantitate the absolute amount of replicon RNA, a standard curve was established by including serially diluted T7 transcripts of replicon RNA in the Taqman assay. All Taqman reagents were from PE Applied Biosystems. Such an assay procedure was described in detail in e.g. Malcolm et al., Antimicrobial Agents and Chemotherapy 50: 1013-1020 (2006).
HCV Replicon assay data for compounds of the invention that were tested were obtained using the above method.
For orientation: A replicon is a self-replicating genome or part of one, used to study replication in cells.

The mark [1] stands for this setting: 72 h, Table V, class codes, replicon cells, day 3, real time PCR, EC90 = concentration for ΔCT=3.2 over baseline, read-out: EC90 (uM) range.
Where [2] appears, read: HCV Replicon assay, EC90 range, Table VI, read-out: EC90.

Read-outs that look alike come from different tables or passages of the source.

The term EC90 denotes the concentration needed for an effect of 90%.

On to `Cc1nc(NCC2CC2)nc(N[C@@H]2C[C@H](CO)[C@@H](O)[C@H]2O)c1-c1nc2cnc(C3CC3)cc2s1` [Example 4942], for which the 90% effect concentration (EC90) under setting [1] was < 0.5 µM. Same read-out and setting: the figure for `COCCNc1nc(C)c(-c2nc3cnc(C4CC4)cc3s2)c(N[C@@H]2C[C@H](CO)[C@@H](O)[C@H]2O)n1` [Example 4943] is < 0.5 µM. On the same count and under the same terms, the figure for `Cc1nc(N[C@H](C)c2ccc(OC(F)(F)F)cc2)nc(N[C@@H]2C[C@H](CO)[C@@H](O)[C@H]2O)c1-c1nc2cnc(C3CC3)cc2s1` [Example 4944] is < 0.5 µM. Regarding `Cc1nc(N)nc(N[C@@H]2C[C@H](CO)[C@@H](O)[C@H]2O)c1-c1nc2cnc(C3CC3)cc2s1` [Example 4945], the 90% effect concentration (EC90) under setting [1] is < 0.5 µM. In the case of `COCCNc1nc(C)c(-c2nc3cnc(C)cc3s2)c(N[C@@H]2C[C@H](CO)[C@@H](O)[C@H]2O)n1` [Example 4946], the concentration for an effect of 90% (EC90) under setting [1] is < 0.5 µM. Turning to `Cc1nc(N[C@H](C)c2ccc(OC(F)(F)F)cc2)nc(N[C@@H]2C[C@H](C(=O)NC(C)(C)C)[C@@H](O)[C@H]2O)c1-c1nc2c(C3CC3)nccc2s1` [Example 4947], the concentration for an effect of 90% (EC90) under setting [1] was < 0.5 µM. Take `Cc1nc(N)nc(N[C@@H]2C[C@H](C(=O)Nc3ccccc3)[C@@H](O)[C@H]2O)c1-c1nc2c(C3CC3)nccc2s1` [Example 4948]: the concentration for an effect of 90% (EC90) under setting [1] was < 0.5 µM. For `COCCNc1nc(C)c(-c2nc3c(C4CC4)nccc3s2)c(N[C@@H]2C[C@H](C(=O)Nc3ccccc3)[C@@H](O)[C@H]2O)n1` [Example 4949], under setting [1], the concentration for an effect of 90% (EC90) was < 0.5 µM. `Cc1nc(NCC2CC2)nc(N[C@@H]2C[C@H](C(=O)Nc3ccccc3)[C@@H](O)[C@H]2O)c1-c1nc2c(C3CC3)nccc2s1` [Example 4950]: the EC90 under setting [1] is < 0.5 µM. `Cc1nc(N[C@H](C)c2ccc(OC(F)(F)F)cc2)nc(N[C@@H]2C[C@H](C(=O)Nc3ccccc3)[C@@H](O)[C@H]2O)c1-c1nc2c(C3CC3)nccc2s1` [Example 4951]: under setting [1], the EC90 was in the range of 0.5 to 5 µM.

As for `Cc1cc2sc(-c3c(C)nc(N[C@H](C)C4CC4)nc3N[C@@H]3C[C@H](CO)[C@@H](O)[C@H]3O)nc2cn1` [Example 4952], the EC90 under setting [1] was < 0.5 µM.

Take `CO[C@H](C)CNc1nc(C)c(-c2nc3cnc(C)cc3s2)c(N[C@@H]2C[C@H](CO)[C@@H](O)[C@H]2O)n1` [Example 4953]: the EC90 under setting [1] was < 0.5 µM. For `COCCNc1nc(C)c(-c2nc3c(C)nccc3s2)c(N[C@@H]2C[C@H](C(C)(C)F)[C@@H](O)[C@H]2O)n1` [Example 4954], the 90% effect concentration (EC90) under setting [1] is < 0.5 µM.

For `Cc1nc(N[C@H](C)c2ccc(OC(F)(F)F)cc2)nc(N[C@@H]2C[C@H](C(=O)Nc3ccncc3)[C@@H](O)[C@H]2O)c1-c1nc2c(C3CC3)nccc2s1` [Example 4955], the concentration for an effect of 90% (EC90) under setting [1] is < 0.5 µM. For `COCCNc1nc(C)c(-c2nc3c(C4CC4)nccc3s2)c(N[C@@H]2C[C@H](C(=O)Nc3ccncc3)[C@@H](O)[C@H]2O)n1` [Example 4956], under setting [1], the EC90 is < 0.5 µM. Consider `Cc1nc(NCC2CC2)nc(N[C@@H]2C[C@H](C(=O)Nc3ccncc3)[C@@H](O)[C@H]2O)c1-c1nc2c(C3CC3)nccc2s1` [Example 4957], for which the EC90 under setting [1] is < 0.5 µM. With `Cc1ccc(S(=O)(=O)C[C@H]2C[C@@H](Nc3nc(NCCSC(C)(C)C)nc(C)c3-c3nc4c(C)nccc4s3)[C@H](O)[C@@H]2O)cc1F` [Example 5001], the 90% effect concentration (EC90) under setting [2] is < 0.5 µM.

Regarding `Cc1cc(S(=O)(=O)C[C@H]2C[C@@H](Nc3nc(NC4CC4)nc(C)c3-c3nc4c(C)nccc4s3)[C@H](O)[C@@H]2O)ccc1F` [Example 5002], the 90% effect concentration (EC90) under setting [2] is < 0.5 µM.

Turning to `Cc1ccc(S(=O)(=O)C[C@H]2C[C@@H](Nc3nc(NC4CC4)nc(C)c3-c3nc4c(C)nccc4s3)[C@H](O)[C@@H]2O)cc1F` [Example 5003], the 90% effect concentration (EC90) under setting [2] was < 0.5 µM.

As for `Cc1nc(NC2CC2)nc(N[C@@H]2C[C@H](CS(=O)(=O)c3ccc(F)c(F)c3)[C@@H](O)[C@H]2O)c1-c1nc2c(C)nccc2s1` [Example 5004], the concentration for an effect of 90% (EC90) under setting [2] was < 0.5 µM.

Turning to `COc1ccc(S(=O)(=O)C[C@H]2C[C@@H](Nc3nc(NC4CC4)nc(C)c3-c3nc4c(C)nccc4s3)[C@H](O)[C@@H]2O)cc1F` [Example 5005], under setting [2], the EC90 was < 0.5 µM. On the same count and under the same terms, as for `Cc1cc(S(=O)(=O)C[C@H]2C[C@@H](Nc3nc(NCCSC(C)(C)C)nc(C)c3-c3nc4c(C)nccc4s3)[C@H](O)[C@@H]2O)ccc1F` [Example 5006], the figure is < 0.5 µM; as for `Cc1nc(NCCSC(C)(C)C)nc(N[C@@H]2C[C@H](CS(C)(=O)=O)[C@@H](O)[C@H]2O)c1-c1nc2c(C3CC3)nccc2s1` [Example 5007], < 0.5 µM. For `Cc1cc(S(=O)(=O)C[C@H]2C[C@@H](Nc3nc(NCC4CC4)nc(C)c3-c3nc4c(C)nccc4s3)[C@H](O)[C@@H]2O)ccc1F` [Example 5008], the EC90 under setting [2] was < 0.5 µM.

For `Cc1cc(S(=O)(=O)C[C@H]2C[C@@H](Nc3nc(NCC(F)(F)F)nc(C)c3-c3nc4c(C)nccc4s3)[C@H](O)[C@@H]2O)ccc1F` [Example 5009], the EC90 under setting [2] is < 0.5 µM. Consider `Cc1cc(S(=O)(=O)C[C@H]2C[C@@H](Nc3nc(NCC(C)(C)C)nc(C)c3-c3nc4c(C)nccc4s3)[C@H](O)[C@@H]2O)ccc1F` [Example 5010], for which the concentration for an effect of 90% (EC90) under setting [2] is < 0.5 µM. Still for that read-out and setting: the figure for `COCCNc1nc(C)c(-c2nc3c(C)nccc3s2)c(N[C@@H]2C[C@H](CS(=O)(=O)c3ccc(F)c(C)c3)[C@@H](O)[C@H]2O)n1` [Example 5011] is < 0.5 µM.

For `CO[C@H](C)CNc1nc(C)c(-c2nc3c(C)nccc3s2)c(N[C@@H]2C[C@H](CS(=O)(=O)c3ccc(F)c(C)c3)[C@@H](O)[C@H]2O)n1` [Example 5012], the EC90 under setting [2] was < 0.5 µM. Consider `COc1ccc(S(=O)(=O)C[C@H]2C[C@@H](Nc3nc(NCC4CC4)nc(C)c3-c3nc4c(C)nccc4s3)[C@H](O)[C@@H]2O)cc1F` [Example 5013], for which the concentration for an effect of 90% (EC90) under setting [2] is < 0.5 µM. As to `COc1ccc(S(=O)(=O)C[C@H]2C[C@@H](Nc3nc(NCCSC(C)(C)C)nc(C)c3-c3nc4c(C)nccc4s3)[C@H](O)[C@@H]2O)cc1F` [Example 5014], the concentration for an effect of 90% (EC90) under setting [2] is < 0.5 µM. `C#CCCNc1nc(C)c(-c2nc3c(C4CC4)nccc3s2)c(N[C@@H]2C[C@H](CS(C)(=O)=O)[C@@H](O)[C@H]2O)n1` [Example 5015]: the EC90 under setting [2] is < 0.5 µM.

Consider `CCc1nccc2sc(-c3c(C)nc(NC4CC4)nc3N[C@@H]3C[C@H](CS(=O)(=O)c4ccc(F)c(C)c4)[C@@H](O)[C@H]3O)nc12` [Example 5016], for which the EC90 under setting [2] was < 0.5 µM. Still for that read-out and setting: as for `CCc1nccc2sc(-c3c(C)nc(NCC4CC4)nc3N[C@@H]3C[C@H](CS(=O)(=O)c4ccc(F)c(C)c4)[C@@H](O)[C@H]3O)nc12` [Example 5017], the figure is < 0.5 µM. On the same count and under the same terms, as for `CCc1nccc2sc(-c3c(C)nc(NCC(C)(C)C)nc3N[C@@H]3C[C@H](CS(=O)(=O)c4ccc(F)c(C)c4)[C@@H](O)[C@H]3O)nc12` [Example 5018], the figure is < 0.5 µM; as for `CCc1nccc2sc(-c3c(C)nc(NCC(F)(F)F)nc3N[C@@H]3C[C@H](CS(=O)(=O)c4ccc(F)c(C)c4)[C@@H](O)[C@H]3O)nc12` [Example 5019], < 0.5 µM; as for `Cc1cc(S(=O)(=O)C[C@H]2C[C@@H](Nc3nc(N)nc(C)c3-c3nc4c(C)nccc4s3)[C@H](O)[C@@H]2O)ccc1F` [Example 5020], < 0.5 µM. The same measure, in the same setting: the figure for `CCc1nccc2sc(-c3c(C)nc(N)nc3N[C@@H]3C[C@H](CS(=O)(=O)c4ccc(F)c(C)c4)[C@@H](O)[C@H]3O)nc12` [Example 5021] is < 0.5 µM; for `CCNC(=O)N[C@H]1C[C@@H](Nc2nc(N[C@H](C)C3CC3)nc(C)c2-c2nc3c(C4CC4)nccc3s2)[C@H](O)[C@@H]1O` [Example 5022] it is < 0.5 µM; for `Cc1nc(N[C@H](C)C2CC2)nc(N[C@@H]2C[C@H](NC(=O)NCc3ccc(F)cc3)[C@@H](O)[C@H]2O)c1-c1nc2c(C3CC3)nccc2s1` [Example 5023] it is < 0.5 µM. On to `CCNC(=S)N[C@H]1C[C@@H](Nc2nc(N[C@H](C)C3CC3)nc(C)c2-c2nc3c(C4CC4)nccc3s2)[C@H](O)[C@@H]1O` [Example 5024], for which the EC90 under setting [2] is < 0.5 µM. On the same count and under the same terms, the figure for `CNS(=O)(=O)C[C@H]1C[C@@H](Nc2nc(NCC3CC3)nc(C)c2-c2nc3c(C)nccc3s2)[C@H](O)[C@@H]1O` [Example 5025] is < 0.5 µM. The same measure, in the same setting: as for `CNS(=O)(=O)C[C@H]1C[C@@H](Nc2nc(NCC3CC3)nc(C)c2-c2nc3c(C)nc(C)cc3s2)[C@H](O)[C@@H]1O` [Example 5026], the figure is < 0.5 µM; as for `CNS(=O)(=O)C[C@H]1C[C@@H](Nc2nc(NC3CC3)nc(C)c2-c2nc3c(C)nc(C)cc3s2)[C@H](O)[C@@H]1O` [Example 5027], < 0.5 µM.

Consider `Cc1nc(N[C@H](C)c2c(F)c(F)c(C)c(F)c2F)nc(N[C@@H]2C[C@H](C(C)(C)O)[C@@H](O)[C@H]2O)c1-c1nc2c(N)nccc2s1` [Example 5028], for which the concentration for an effect of 90% (EC90) under setting [2] was < 0.5 µM. `Cc1nc(N)nc(N[C@@H]2C[C@H](C(C)(C)O)[C@@H](O)[C@H]2O)c1-c1nc2c(N)nccc2s1` [Example 5029]: under setting [2], the EC90 was < 0.5 µM.

For the origin of these results see patent publication US9433621B2, “Substituted pyridine and pyrimidine derivatives and their use in treating viral infections” (Merck Sharp & Dohme Corp., priority 2010, dated 2016).
